Measurements reported in US9789181B2, “PAN-DR binding polypeptides and uses thereof” (Epimmune Inc., priority 2009, dated 2017).
Changes are numbered by the printed parent chain. Names may count otherwise. Where no end group is shown, it is not given here.

What was measured:
purified HLA DRB1 *0401 = purified HLA DRB1 *0401 (Homo sapiens, UniProt P01903+P01911, A100K/A169T/F76Y/I96L/K127E/L162R/M171V/N62H/P40V/Q125Y/R42H/S133A/S149N/S66Y/V115G/V209L/W38E); test: IC50nM to purified HLA | DRB1 *0401
Experimental: (§1) Table printed on a drawing sheet, FIG. 1
Head of the field: IC50nM to purified HLA | DRB1 *0401
(§2) First copying reader's note: The comma is the decimal sign and the point a thousands separator (e.g. 21.831); some values are printed bold or italic and some SEQ ID NOs underlined, with no legend on the sheet.
Where the first naming reader finds the target: head: IC50nM to purified HLA | DRB1 *0401

purified HLA DRB1 *0404 = purified HLA DRB1 *0404 (Homo sapiens, UniProt P01903+P01911, A100R/A169T/F76Y/I96L/K127E/L162R/M171V/N62H/P40V/Q125Y/R42H/S133A/S149N/S66Y/V209L/W38E); test: IC50nM to purified HLA | DRB1 *0404
Experimental: as §1
Head of the field: IC50nM to purified HLA | DRB1 *0404
as §2
Where the first naming reader finds the target: head: IC50nM to purified HLA | DRB1 *0404

purified HLA DRB4 *0101 = purified HLA DRB4 *0101 (Homo sapiens, UniProt P01903+P13762, G164S); test: IC50nM to purified HLA | DRB4 *0101
Experimental: as §1
Head of the field: IC50nM to purified HLA | DRB4 *0101
as §2
Where the first naming reader finds the target: head: IC50nM to purified HLA | DRB4 *0101

purified HLA DRB1 *0405 = purified HLA DRB1 *0405 (Homo sapiens, UniProt P01903+P01911, A100R/A169T/D86S/F76Y/I96L/K127E/L162R/M171V/N62H/P40V/Q125Y/R42H/S133A/S149N/S66Y/V115G/V209L/W38E); test: IC50nM to purified HLA | DRB1 *0405
Experimental: as §1
Head of the field: IC50nM to purified HLA | DRB1 *0405
as §2
Where the first naming reader finds the target: head: IC50nM to purified HLA | DRB1 *0405

[1] = system: crude extract from E. coli; test: In situ protease assay: TNFα variants in E. coli crude extract, SDS-PAGE and Western blot; type: in vitro ADME; details: for protease resistance of TNF variants (proteolytic cleavage inside the PADRE analogue sequence): E. coli crude extract, immunoblot, data not shown
Experimental: In order to test the protease resistance of selected, good binding PADRE analogues, their sequences were inserted by cloning techniques into a loop (loop EF) in human TNFα. Cell-free protein crude extract from E. coli expressing the modified TNFα molecules was prepared and proteolytic cleavage within the PADRE analogue sequences was analysed by SDS-PAGE followed by immunoblotting.
A synthetic cDNA encoding TNF (Y87S) was used as template. Oligonucleotides encoding PADRE or PADRE analogues were inserted into the template between A185 and E186 by PCR (cf. above). Resulting cDNAs were cloned into pET28b+(Novagen) and transformed into E. coli strain HMS 174. For recombinant expression, the resulting E. coli strains were cultured in fermentors in a defined medium at 37° C. Induction of recombinant expression was initiated by the addition of 1 mM of IPTG and temperature was lowered to 25° C. Cultures were harvested at 4, 8 or 24 h post-IPTG induction. TNFα variants were purified to >90% homogeneity by affinity chromatography using a TNFα specific monoclonal antibody as described in Nielsen et al., (2004), J Biol. Chem. 279:33593-33600. The purified TNFα variants were characterized by MALDI-TOF mass spectrometry to verify their identity and integrity.
In Situ Protease Assay: Analysis of the Protease Resistance of TNF-α Variants Using Western Blot
Aliquots (1 ml) of E. coli cell cultures, expressing the various TNF-α variants to be tested, were centrifuged (5000 g/5 min/5° C.) and the culture medium was discarded. Cell pellets were resuspended in 1 ml of 20 mM Bis-Tris, pH 6.0. Cell disruption was achieved by sonication (4×15 sec at an amplitude of 11 μm with 20 sec pauses between each sonication round). The resulting suspensions were centrifuged (20000 g/30 min/8° C.) and the supernatants (crude extracts) were transferred to fresh tubes. Crude extracts were then analysed for protein content using a Bradford protein assay (Biorad). Equivalent amounts of proteins were loaded onto 4-12% NuPAGE gels (Novex). After SDS-PAGE, proteins were transferred onto nitrocellulose membrane by semi-dry blotting. For immunoreaction, incubation with rabbit TNFα antiserum (1 h; dilution 1:10 000) and with horse radish peroxidase-conjugated secondary antibody (Dako P448) were carried out in Tris 50 mM, NaCl 150 mM, EDTA 5 mM, Igepal 0.1%, gelatine 0.5%. Detection was with ECL™ reagents (GE Healthcare).

purified HLA DRB1 *0301 = purified HLA DRB1 *0301 (Homo sapiens, UniProt P01903+P01911, A100K/A102G/A103R/A169T/F55Y/I96L/K41T/L162R/M171V/P40S/Q125H/Q178H/Q39Y/R42S/S66N/T106N/T262R/W38E/Y61H); test: IC50nM to purified HLA | DRB1 *0301
Experimental: as §1
Head of the field: IC50nM to purified HLA | DRB1 *0301
as §2
Where the first naming reader finds the target: head: IC50nM to purified HLA | DRB1 *0301

purified HLA DRB1 *0802 = purified HLA DRB1 *0802 (Homo sapiens, UniProt P01903+P01911, A100R/A103L/A169T/F76Y/H45Y/I96F/K41T/L162R/M171V/P40S/Q125H/Q178H/Q39Y/Q99D/R218S/R42G/S66Y/V115G/W38E); test: IC50nM to purified HLA | DRB1 *0802
Experimental: as §1
Head of the field: IC50nM to purified HLA | DRB1 *0802
as §2
Where the first naming reader finds the target: head: IC50nM to purified HLA | DRB1 *0802

purified HLA DRB1 *0101 = purified HLA DRB1 *0101 (Homo sapiens, UniProt P01903+P01911, A100R/D57E/F55L/F60I/F76Y/I96L/L162R/M171V/P40L/Q125E/R42F/V115G/Y59C); test: IC50nM to purified HLA | DRB1 *0101
Experimental: as §1
Head of the field: IC50nM to purified HLA | DRB1 *0101
as §2
Where the first naming reader finds the target: head: IC50nM to purified HLA | DRB1 *0101

purified HLA DRB1 *0701 = purified HLA DRB1 *0701 (Homo sapiens, UniProt P01903+P01911, A100R/A102G/A103Q/D57E/D86V/E43K/F76Y/K127E/L162R/M171V/P40G/Q125H/Q99D/R33Q/R42Y/R54Q/S133A/S66F/T210M/V115G/Y107V/Y59L/Y89S); test: IC50nM to purified HLA | DRB1 *0701
Experimental: as §1
Head of the field: IC50nM to purified HLA | DRB1 *0701
as §2
Where the first naming reader finds the target: head: IC50nM to purified HLA | DRB1 *0701

Chain of purified HLA DRB1 *0301 (P01903 26-254 limits assumed, other chains not shown): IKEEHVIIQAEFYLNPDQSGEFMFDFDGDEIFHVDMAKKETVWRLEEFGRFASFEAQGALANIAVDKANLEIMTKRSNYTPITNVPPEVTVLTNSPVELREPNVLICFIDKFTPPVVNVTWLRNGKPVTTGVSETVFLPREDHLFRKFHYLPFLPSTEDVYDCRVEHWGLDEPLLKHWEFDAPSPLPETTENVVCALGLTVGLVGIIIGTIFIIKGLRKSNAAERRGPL
Chain of purified HLA DRB4 *0101 (P01903 26-254 limits assumed): as the sequence (P01903 26-254 limits assumed, other chains not shown) above
Chain of purified HLA DRB4 *0101 (P13762 whole entry G164S): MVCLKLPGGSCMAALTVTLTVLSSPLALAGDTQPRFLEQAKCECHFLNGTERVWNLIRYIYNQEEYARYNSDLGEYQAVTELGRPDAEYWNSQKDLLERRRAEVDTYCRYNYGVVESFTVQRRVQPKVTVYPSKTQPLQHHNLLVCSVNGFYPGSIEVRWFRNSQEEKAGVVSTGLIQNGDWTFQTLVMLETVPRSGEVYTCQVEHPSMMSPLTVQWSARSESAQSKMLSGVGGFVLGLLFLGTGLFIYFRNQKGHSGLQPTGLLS

## AAAYFVAAFTLHAAA [SEQ ID NO: 23]
Purified HLA DRB1 *0401
  IC50: 1 nM
Purified HLA DRB1 *0404
  IC50: 0.67 nM
Purified HLA DRB4 *0101
  IC50: 81 nM
Purified HLA DRB1 *0405
  IC50: 4.4 nM
[1]; sequence inserted into loop EF of human TNFα, procedure of Example 2
  protease resistance of PADRE analogue sequence: increased resistance towards proteolytic degradation
Purified HLA DRB1 *0301
  IC50: 126 nM
Purified HLA DRB1 *0802
  IC50: 5.9 nM
Purified HLA DRB1 *0101
  IC50: 3.4 nM
Purified HLA DRB1 *0701
  IC50: 78 nM

B1: SEQ ID NO: 78: TNFα (Y87S) variant with the 12 C-terminal residues of SEQ ID NO: 23 inserted (protein)
chain: MVRSSSRTPSDKPVAHVVANPQAEGQLQWLNRRANALLANGVELRDNQLVVPSEGLYLIYSQVLFKGQGCPSTHVLLTHTISRIAVSSQTKVNLLSAIKSPCQRETPEGAYFVAAFTLHAAAEAKPWYEPIYLGGVFQLEKGDRLSAEINRPDYLDFAESGQVYFGIIAL
modifications: Synthetic TNF variant incorporating pan-DR binding peptide
[1]
  protease resistance of TNF variants (proteolytic cleavage inside the PADRE analogue sequence): protease resistant

B2: SEQ ID NO: 79: TNFα (Y87S) variant with the 12 C-terminal residues of SEQ ID NO: 29 inserted (protein)
chain: B1 chain with Y111H, F116N
modifications: Synthetic TNF variant incorporating pan-DR binding peptide
[1]
  protease resistance of TNF variants (proteolytic cleavage inside the PADRE analogue sequence): protease resistant

B3: SEQ ID NO: 84: TNFα (Y87S) variant with the 12 C-terminal residues of SEQ ID NO: 69 inserted (protein)
chain: B1 chain with Y111I, F116W
modifications: Synthetic TNF variant incorporating pan-DR binding peptide
[1]
  protease resistance of TNF variants (proteolytic cleavage inside the PADRE analogue sequence): protease resistant
